Measurements from publication PMC6458995, “MAP4K4 Inhibition Promotes Survival of Human Stem Cell-Derived Cardiomyocytes and Reduces Infarct Size In Vivo” (Cell Stem Cell, 2019).

Legend:
Experiment in all cases: Dundee kinase panel
Assay type in all cases: biochemical
Details in all cases: for remaining activity at 1 µM: read-out: residual activity
RIPK2 = target: T1, RIPK2 (Homo sapiens, UniProt O43353)
T1 construct: lines 1-140) and Reaction Biology
Experimental: (§1) Compounds were screened at 1 μM. For key hits, pIC50 values were then determined by HTRF as above. […] Stability in mouse and human liver microsomes was determined by Cyprotex.

ABL = target: T2, ABL (Homo sapiens, UniProt P00519)
T2 construct: lines 1-140) and Reaction Biology
Experimental: as §1

TTBK2 = target: T3, TTBK2 (Homo sapiens, UniProt Q6IQ55)
T3 construct: lines 1-140) and Reaction Biology
Experimental: as §1

TIE2 = target: T4, TIE2 (Homo sapiens, UniProt Q02763)
T4 construct: lines 1-140) and Reaction Biology
Experimental: as §1

PIM3 = target: T5, PIM3 (Homo sapiens, UniProt Q86V86)
T5 construct: lines 1-140) and Reaction Biology
Experimental: as §1

MARK4 = target: T6, MARK4 (Homo sapiens, UniProt Q96L34)
T6 construct: lines 1-140) and Reaction Biology
T6 sequence (Q96L34 1-752): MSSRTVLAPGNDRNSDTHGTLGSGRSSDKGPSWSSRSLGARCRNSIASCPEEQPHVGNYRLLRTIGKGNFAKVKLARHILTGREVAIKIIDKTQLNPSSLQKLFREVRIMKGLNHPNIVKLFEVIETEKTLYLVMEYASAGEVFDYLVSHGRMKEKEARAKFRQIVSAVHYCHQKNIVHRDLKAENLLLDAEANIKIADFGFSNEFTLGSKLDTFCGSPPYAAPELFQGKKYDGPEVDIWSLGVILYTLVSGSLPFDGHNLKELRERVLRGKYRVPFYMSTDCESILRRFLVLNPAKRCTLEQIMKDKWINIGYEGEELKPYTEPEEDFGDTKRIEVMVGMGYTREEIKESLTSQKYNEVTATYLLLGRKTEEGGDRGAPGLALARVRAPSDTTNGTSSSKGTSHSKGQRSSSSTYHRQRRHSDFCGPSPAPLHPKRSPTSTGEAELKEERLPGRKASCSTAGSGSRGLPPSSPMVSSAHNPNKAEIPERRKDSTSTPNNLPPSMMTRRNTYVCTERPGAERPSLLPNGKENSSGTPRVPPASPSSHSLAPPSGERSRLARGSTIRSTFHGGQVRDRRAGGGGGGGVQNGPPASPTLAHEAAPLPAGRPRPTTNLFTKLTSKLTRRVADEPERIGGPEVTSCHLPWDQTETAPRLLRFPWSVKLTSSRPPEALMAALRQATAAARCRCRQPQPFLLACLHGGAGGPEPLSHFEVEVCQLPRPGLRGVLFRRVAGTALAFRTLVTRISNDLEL
Experimental: as §1

HIPK2 = target: T7, HIPK2 (Homo sapiens, UniProt Q9H2X6)
T7 construct: lines 1-140) and Reaction Biology
Experimental: as §1

PKBa = target: T8, PKBa (Homo sapiens, UniProt P31749)
T8 construct: lines 1-140) and Reaction Biology
Experimental: as §1

OSR1 = target: T9, OSR1 (Homo sapiens, UniProt O95747)
T9 construct: lines 1-140) and Reaction Biology
Experimental: as §1

DDR2 = target: T10, DDR2 (Homo sapiens, UniProt Q16832)
T10 construct: lines 1-140) and Reaction Biology
T10 sequence (Q16832 22-855): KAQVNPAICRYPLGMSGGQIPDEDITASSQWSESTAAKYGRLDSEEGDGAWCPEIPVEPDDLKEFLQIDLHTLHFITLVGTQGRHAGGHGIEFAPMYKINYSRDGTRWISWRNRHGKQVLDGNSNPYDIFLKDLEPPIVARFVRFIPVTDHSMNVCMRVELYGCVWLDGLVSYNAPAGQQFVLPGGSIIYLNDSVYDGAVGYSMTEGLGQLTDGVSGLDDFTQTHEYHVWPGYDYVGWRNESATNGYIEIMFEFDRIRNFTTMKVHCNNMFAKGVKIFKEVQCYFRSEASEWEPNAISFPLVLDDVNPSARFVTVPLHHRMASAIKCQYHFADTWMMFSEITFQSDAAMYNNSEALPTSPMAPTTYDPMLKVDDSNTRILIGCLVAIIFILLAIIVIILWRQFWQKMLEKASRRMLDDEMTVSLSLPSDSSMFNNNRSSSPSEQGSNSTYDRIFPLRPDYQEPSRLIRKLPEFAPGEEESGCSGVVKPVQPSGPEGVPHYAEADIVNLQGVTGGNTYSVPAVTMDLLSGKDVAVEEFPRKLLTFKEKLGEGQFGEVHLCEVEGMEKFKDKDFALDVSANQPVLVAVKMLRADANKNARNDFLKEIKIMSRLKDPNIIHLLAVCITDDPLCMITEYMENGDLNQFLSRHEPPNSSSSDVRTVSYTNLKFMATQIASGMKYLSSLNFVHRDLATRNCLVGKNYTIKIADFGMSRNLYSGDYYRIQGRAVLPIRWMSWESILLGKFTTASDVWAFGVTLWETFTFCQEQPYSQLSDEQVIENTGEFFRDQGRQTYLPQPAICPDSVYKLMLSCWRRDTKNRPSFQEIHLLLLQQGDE
Experimental: as §1

T2 sequence (P00519 whole entry): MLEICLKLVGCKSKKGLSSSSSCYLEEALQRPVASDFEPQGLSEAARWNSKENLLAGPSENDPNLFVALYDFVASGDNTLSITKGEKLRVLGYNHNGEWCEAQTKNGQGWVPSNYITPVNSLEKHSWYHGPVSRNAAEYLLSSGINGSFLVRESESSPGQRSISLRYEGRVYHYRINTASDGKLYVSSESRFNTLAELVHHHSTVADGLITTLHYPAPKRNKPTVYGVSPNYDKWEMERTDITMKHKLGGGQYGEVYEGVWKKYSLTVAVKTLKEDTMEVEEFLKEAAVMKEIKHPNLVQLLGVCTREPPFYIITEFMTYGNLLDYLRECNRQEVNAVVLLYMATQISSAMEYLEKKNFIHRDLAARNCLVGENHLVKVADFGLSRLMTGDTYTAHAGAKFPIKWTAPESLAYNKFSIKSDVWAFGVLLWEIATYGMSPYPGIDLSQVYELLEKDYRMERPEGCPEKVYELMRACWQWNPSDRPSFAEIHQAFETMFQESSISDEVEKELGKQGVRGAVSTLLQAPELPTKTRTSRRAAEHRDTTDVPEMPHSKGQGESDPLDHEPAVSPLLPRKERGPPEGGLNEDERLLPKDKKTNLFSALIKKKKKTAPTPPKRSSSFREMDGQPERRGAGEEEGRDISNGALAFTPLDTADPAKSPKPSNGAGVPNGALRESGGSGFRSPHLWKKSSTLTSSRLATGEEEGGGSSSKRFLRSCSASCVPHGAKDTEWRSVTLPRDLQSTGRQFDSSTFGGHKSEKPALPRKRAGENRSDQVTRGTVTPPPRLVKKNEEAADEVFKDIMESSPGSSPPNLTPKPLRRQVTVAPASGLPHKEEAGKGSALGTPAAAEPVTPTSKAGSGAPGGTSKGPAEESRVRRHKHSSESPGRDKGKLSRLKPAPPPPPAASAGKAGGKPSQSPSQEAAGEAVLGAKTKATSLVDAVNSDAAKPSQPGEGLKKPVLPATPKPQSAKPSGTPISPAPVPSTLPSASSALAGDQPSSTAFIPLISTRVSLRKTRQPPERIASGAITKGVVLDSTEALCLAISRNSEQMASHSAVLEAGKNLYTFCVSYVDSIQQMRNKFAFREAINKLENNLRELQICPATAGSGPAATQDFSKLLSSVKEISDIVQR
T7 sequence (Q9H2X6 whole entry): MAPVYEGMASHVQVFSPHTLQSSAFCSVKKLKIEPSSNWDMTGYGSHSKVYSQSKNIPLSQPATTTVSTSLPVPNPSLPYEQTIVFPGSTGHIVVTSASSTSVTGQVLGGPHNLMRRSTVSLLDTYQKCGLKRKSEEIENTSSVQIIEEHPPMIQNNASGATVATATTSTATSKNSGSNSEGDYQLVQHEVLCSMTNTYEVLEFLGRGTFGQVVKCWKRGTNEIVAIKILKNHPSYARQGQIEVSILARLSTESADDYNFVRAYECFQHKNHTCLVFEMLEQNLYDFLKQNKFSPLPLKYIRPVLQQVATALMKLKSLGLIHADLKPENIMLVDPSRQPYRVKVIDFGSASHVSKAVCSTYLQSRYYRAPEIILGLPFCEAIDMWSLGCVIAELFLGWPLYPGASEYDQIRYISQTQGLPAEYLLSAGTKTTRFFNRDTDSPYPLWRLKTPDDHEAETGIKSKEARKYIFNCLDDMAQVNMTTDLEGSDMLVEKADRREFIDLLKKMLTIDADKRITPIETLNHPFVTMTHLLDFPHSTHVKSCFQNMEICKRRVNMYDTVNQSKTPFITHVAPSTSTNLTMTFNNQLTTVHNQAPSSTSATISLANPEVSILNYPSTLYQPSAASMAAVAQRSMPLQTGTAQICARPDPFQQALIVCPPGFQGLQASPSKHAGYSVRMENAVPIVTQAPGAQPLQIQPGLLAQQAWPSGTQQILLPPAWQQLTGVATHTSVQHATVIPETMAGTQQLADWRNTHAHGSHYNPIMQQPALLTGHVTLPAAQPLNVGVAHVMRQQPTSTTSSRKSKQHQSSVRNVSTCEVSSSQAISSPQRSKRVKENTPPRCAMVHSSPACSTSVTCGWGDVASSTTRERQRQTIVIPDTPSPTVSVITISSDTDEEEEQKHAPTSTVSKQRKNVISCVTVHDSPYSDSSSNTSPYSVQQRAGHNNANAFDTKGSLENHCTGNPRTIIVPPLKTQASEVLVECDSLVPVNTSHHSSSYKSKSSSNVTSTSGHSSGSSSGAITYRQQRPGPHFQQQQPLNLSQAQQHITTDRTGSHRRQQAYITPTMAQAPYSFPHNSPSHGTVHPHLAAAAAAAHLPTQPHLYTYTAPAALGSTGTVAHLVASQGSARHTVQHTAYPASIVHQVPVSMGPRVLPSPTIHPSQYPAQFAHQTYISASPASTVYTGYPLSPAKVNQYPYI
T8 sequence (P31749 whole entry): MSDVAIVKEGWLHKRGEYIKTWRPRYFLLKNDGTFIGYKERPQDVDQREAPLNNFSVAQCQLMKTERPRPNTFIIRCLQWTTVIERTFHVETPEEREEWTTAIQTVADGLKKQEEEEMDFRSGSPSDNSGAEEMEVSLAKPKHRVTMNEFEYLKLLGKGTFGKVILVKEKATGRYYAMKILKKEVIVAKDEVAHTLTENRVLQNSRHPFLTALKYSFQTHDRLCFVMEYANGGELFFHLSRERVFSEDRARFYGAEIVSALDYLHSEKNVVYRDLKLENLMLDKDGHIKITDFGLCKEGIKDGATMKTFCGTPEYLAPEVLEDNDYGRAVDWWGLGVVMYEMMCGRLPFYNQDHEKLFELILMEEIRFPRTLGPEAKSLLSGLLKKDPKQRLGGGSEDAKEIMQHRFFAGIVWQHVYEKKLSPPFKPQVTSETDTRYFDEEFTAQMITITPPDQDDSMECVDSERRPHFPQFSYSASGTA
T3 sequence (Q6IQ55 whole entry): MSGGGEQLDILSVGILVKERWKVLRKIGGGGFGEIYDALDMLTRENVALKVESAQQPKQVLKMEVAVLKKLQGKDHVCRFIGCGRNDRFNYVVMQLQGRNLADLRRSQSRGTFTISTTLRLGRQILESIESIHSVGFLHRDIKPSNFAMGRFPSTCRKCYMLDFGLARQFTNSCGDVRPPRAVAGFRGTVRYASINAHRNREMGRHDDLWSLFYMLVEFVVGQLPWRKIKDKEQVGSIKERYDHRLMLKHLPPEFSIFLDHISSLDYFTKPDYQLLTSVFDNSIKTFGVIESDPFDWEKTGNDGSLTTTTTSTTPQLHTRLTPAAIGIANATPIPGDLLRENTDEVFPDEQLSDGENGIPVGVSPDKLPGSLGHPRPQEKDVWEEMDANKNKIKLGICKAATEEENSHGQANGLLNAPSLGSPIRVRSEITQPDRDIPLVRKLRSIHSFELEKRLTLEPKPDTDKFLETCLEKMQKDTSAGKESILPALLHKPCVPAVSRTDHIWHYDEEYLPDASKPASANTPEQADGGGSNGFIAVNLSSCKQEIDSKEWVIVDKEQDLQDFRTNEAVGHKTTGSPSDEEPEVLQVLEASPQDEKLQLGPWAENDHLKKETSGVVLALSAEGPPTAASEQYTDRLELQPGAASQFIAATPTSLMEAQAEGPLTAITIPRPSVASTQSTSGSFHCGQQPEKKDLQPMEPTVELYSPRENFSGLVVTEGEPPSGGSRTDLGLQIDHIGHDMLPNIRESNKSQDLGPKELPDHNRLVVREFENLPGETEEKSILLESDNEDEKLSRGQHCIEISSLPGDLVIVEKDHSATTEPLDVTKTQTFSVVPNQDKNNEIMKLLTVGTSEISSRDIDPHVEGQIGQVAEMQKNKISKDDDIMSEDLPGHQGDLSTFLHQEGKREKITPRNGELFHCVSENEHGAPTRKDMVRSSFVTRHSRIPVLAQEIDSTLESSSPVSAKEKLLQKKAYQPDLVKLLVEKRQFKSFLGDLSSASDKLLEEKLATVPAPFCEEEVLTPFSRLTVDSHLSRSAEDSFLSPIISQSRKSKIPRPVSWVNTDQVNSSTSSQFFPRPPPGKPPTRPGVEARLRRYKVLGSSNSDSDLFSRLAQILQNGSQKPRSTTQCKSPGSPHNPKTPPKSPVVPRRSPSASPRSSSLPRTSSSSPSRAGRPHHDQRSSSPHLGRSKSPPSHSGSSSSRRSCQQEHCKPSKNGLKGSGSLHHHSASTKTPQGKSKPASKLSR
T9 sequence (O95747 whole entry): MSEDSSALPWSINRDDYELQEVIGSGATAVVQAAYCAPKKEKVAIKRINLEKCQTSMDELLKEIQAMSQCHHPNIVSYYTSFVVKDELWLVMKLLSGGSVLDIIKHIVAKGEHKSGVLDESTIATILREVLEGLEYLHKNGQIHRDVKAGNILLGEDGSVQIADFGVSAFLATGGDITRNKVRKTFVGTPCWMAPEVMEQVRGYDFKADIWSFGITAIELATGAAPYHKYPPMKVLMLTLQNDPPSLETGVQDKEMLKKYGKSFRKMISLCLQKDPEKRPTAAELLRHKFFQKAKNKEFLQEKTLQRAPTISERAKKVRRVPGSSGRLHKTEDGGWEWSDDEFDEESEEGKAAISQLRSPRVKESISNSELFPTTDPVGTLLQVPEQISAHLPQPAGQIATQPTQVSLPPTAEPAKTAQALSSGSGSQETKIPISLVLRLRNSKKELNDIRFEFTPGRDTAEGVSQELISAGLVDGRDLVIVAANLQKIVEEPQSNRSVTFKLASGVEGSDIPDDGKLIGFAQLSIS

Row | Compound | remaining activity at 1 µM (RIPK2) [%] | remaining activity at 1 µM (ABL) [%] | remaining activity at 1 µM (TTBK2) [%] | remaining activity at 1 µM (TIE2) [%] | remaining activity at 1 µM (PIM3) [%] | remaining activity at 1 µM (MARK4) [%] | remaining activity at 1 µM (HIPK2) [%] | remaining activity at 1 µM (PKBa) [%] | remaining activity at 1 µM (OSR1) [%] | remaining activity at 1 µM (DDR2) [%] | residual activity (RIPK2; 1 μM) [%] | residual activity (ABL; 1 μM) [%] | residual activity (TTBK2; 1 μM) [%] | residual activity (TIE2; 1 μM) [%] | residual activity (PIM3; 1 μM) [%] | residual activity (MARK4; 1 μM) [%] | residual activity (HIPK2; 1 μM) [%] | residual activity (PKBa; 1 μM) [%] | residual activity (OSR1; 1 μM) [%] | residual activity (DDR2; 1 μM) [%]
1 | COCCOc1ccc(-c2cn(-c3ccccc3)c3nc[nH]c(=O)c23)cc1 [DMX-5804, 5-[4-(2-methoxy-ethoxy)-phenyl]-7-phenyl-3,7-dihydro-pyrrolo[2,3-d]pyrimidin-4-one] | 89 | 79 | 108 | 101 | 88 | 99 | 102 | 116 | 128 | 80 |  |  |  |  |  |  |  |  |  | 
2 | Oc1ncnc2c1c(-c1ccccc1)cn2-c1ccccc1 [F1386-0303, 5,7-diphenyl-7H-pyrrolo[2,3-d]pyrimidin-4-ol] | 105 | 94 | 99 | 114 | 74 | 96 | 87 | 117 | 102 | 88 |  |  |  |  |  |  |  |  |  | 
3 | Nc1ncc(C(=O)NC2CN(C(=O)C3CC3)C2)c2ccc(-c3cccc(F)c3)nc12 [GNE-495] |  |  |  |  |  |  |  |  |  |  | 11 | 68 | 116 | 86 | 87 | 51 | 96 | 105 | 109 | 109
4 | O=C1Nc2ccc(I)cc2/C1=C/c1cc(Br)c(O)c(Br)c1 [GW5074] | 51 | 58 | 83 | 98 | 6 | 50 | 134 | 93 | 24 | 62 |  |  |  |  |  |  |  |  |  | 
5 | O=C1Cc2c([nH]c3ccc(Br)cc23)-c2ccccc2N1 [Kenpaullone] | 60 | 40 | 95 | 98 | 103 | 39 | 103 | 95 | 52 | 88 |  |  |  |  |  |  |  |  |  | 
